Experimental data as given in ChEMBL document CHEMBL2073768, “Effects of xanthine derivatives on the influx and efflux of doxorubicin in P388 and DOX-resistant P388 leukemia cells” (Toxicol Lett, 2002).

Biological target: ATP-dependent translocase ABCB1 (P-glycoprotein) (Mus musculus, UniProt P21447)
Assay: TP_TRANSPORTER: inhibition of DOX efflux (DOX: 18? uM, XT-141: 100 uM) in P388/DOX cells
Format: functional, cell-based
Conditions: probe DOX (doxorubicin), read-out: Activity

Chain of ATP-dependent translocase ABCB1 (P-glycoprotein) (P21447 whole entry): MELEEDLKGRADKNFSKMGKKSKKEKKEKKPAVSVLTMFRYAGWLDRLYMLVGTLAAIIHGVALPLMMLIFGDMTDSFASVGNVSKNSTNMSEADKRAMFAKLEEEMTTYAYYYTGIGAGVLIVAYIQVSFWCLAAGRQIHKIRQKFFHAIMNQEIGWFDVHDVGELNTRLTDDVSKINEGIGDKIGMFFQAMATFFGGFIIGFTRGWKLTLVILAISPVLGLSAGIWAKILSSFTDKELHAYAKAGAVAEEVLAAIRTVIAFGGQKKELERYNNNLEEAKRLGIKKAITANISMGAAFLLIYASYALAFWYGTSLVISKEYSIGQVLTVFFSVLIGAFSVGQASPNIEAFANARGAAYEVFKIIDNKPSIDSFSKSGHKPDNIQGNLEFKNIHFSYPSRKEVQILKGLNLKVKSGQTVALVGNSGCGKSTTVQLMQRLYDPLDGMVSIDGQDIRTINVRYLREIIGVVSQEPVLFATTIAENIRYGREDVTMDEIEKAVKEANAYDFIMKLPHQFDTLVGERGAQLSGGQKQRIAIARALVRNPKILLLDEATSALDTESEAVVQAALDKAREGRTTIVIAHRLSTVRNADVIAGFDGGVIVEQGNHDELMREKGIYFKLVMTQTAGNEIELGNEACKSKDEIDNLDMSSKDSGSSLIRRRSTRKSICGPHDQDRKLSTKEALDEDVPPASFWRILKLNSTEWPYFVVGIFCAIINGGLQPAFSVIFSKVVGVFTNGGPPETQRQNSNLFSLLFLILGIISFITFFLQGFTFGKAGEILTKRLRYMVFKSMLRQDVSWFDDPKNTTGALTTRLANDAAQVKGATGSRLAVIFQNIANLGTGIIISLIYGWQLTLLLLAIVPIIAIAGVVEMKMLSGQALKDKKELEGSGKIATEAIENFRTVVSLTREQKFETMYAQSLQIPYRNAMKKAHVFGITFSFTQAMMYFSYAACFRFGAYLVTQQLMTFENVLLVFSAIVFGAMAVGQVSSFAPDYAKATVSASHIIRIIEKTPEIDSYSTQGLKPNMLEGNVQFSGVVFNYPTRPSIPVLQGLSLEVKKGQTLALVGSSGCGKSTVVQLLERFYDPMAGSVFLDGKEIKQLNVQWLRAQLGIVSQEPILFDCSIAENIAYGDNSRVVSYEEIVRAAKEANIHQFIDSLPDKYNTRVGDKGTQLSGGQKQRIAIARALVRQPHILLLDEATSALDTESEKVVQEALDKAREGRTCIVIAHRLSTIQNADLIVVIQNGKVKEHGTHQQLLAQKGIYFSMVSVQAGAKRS

Compound: CCCn1c(=O)n(C)c(=O)c2c1ncn2CCCN(C)C
- inhibition at 100 µM: 43%
